Measurements taken from paper PMC11235171, “Microproteins encoded by noncanonical ORFs are a major source of tumor-specific antigens in a liver cancer patient meta-cohort” (Science Advances, 2024).

How the values were obtained:
HHD-DR1 mice [1] = assay: IFN-γ intracellular cytokine staining (flow cytometry) of CD4+ and CD8+ T cells after peptide immunization; type: in vivo, mouse; conditions: splenocytes of immunized mice stimulated with peptide 10 μM, 4 hours, GolgiStop/GolgiPlug; cell density plots
Protocol: (§1) Eight-week-old female HHD-DR1 mice, transgenic for human HLA-A*02:01 molecules ([82]), were used. After study approval by the ethics review committee (reference no. 036-21), mice were bred and housed under pathogen-free conditions in the animal facility of the Center for Applied Medical Research (CIMA). Mice (n = 4 per group) were immunized with peptides (100 nmol per peptide), polyinosinic:polycytidylic acid (50 μg per mouse), and αCD40 (50 μg per mouse). The peptides and adjuvants were administered simultaneously via subcutaneous injection of 100 μl of the mixture resuspended in phosphate-buffered saline. Mice received a boost on day 7 and were euthanized on day 14.
Splenocytes were stimulated with the peptides (10 μM) in the presence of GolgiStop and GolgiPlug (BD Biosciences). Four hours later, cells were surface stained with the following antibodies: CD3ε-Percp-Cy5 (145-2 C11), CD4-FITC (RM4-5), and CD8-BV421 (53-6.7) from BioLegend. Next, cells were fixed and permeabilized using BD Cytofix/Cytoperm Fixation/Permeablization Kit and intracellularly stained with IFNγ-PE (XMG1.2) antibodies. Samples were acquired with a Cytoflex (Beckman Coulter) flow cytometer and were analyzed using FlowJo software (Tree Star).

HHD-DR1 mice [2] = assay: IFN-γ ELISPOT on splenocytes of peptide-immunized HLA-A*02:01 transgenic mice; type: in vivo, mouse; conditions: for IFN-γ signal after peptide immunization (immunogenicity), in words: HLA-A*02:01 / HLA-DRB1*01 transgenic mice immunized twice, T cell response measured at day 14 by IFN-γ ELISPOT
Protocol: as §1
The spleens of immunized mice were processed to measure the number of IFN-γ secreting cells. Splenocytes (8 × 10^5 cells per well) were stimulated for 24 hours with peptides (10 μg/ml). The number of IFN-γ secreting cells was quantified by ImmunoSpot automated counter (Cellular Technology Limited) using the Spot 3 CTL CellCounting software.

| Sequence | IFN-γ producing CD8+ versus CD4+ T cells (ICS), in words (HHD-DR1 mice [1]) | IFN-γ signal after peptide immunization (immunogenicity), in words (HHD-DR1 mice [2]) | number of IFN-γ secreting cells (IFNγSFC) (HHD-DR1 mice [2]; HHD-DR1 mice, n = 4 per group, 100 nmol peptide + poly I:C + αCD40 s.c., boost day 7, spleens day 14, splenocytes stimulated 24 hours with peptide 10 μg/ml, all four replicates) |
| --- | --- | --- | --- |
| GLFHIYHKI | signal for CD8+ cells only | strong IFN-γ signal | – |
| WMSLDWELYV | signal for CD8+ cells only | strong IFN-γ signal | > 1000 IFNγSFC per 8 × 10^5 cells |
